Results from patent US10137166B2, “Compositions and methods for affecting movement of contaminants, bodily fluids or other entities, and/or affecting other physiological conditions” (Massachusetts Institute of Technology, priority 2006, dated 2018).

How the values were obtained:
spinotrapezius muscles = assay: Muscle trauma, deep cut in the spinotrapezius muscles on the back; hemostasis; format: in vivo, rat; conditions: 1% peptide solution applied in the cut
Excerpt: The spinotrapezius muscles on the back of the rats were exposed and a deep cut was made in the muscle, after which 1% peptide solution (RADA16-I) was applied in the cut. Within 10 seconds, all bleeding had stopped. With the application of iced saline alone, control animals continued to bleed after 20 seconds.

femoral artery = assay: Femoral artery transection; hemostasis; format: in vivo, adult rats
Procedure: The sciatic nerve and the adjacent femoral artery were exposed in adult rats, and the femoral artery was transected. Twelve rats were treated by application of 20 μl of a 1% solution of RADA 16-I peptide to the site of transection using a glass pipette attached to a syringe body, while controls were treated by applying cold saline to the site of transection. […] The saline control cases continued to bleed until the experiment was terminated at 110 seconds. […] A series of pictures was taken in an adult rat in which the femoral artery was transected. In the picture taken first, the sciatic nerve and the femoral artery are exposed. […] The assembled material can be suctioned off the site easily if desired.
In the saline controls, hemostasis was never reached.

[1] = tested on: liver (lobus sinister lateralis); assay: Liver, rostral to caudal cut of the lobus sinister lateralis (relatively low pressure vessel); hemostasis; format: in vivo, adult rat; conditions: 1% peptide solution, topically and in the cut
Excerpt: Profuse bleeding ensued. A 1% peptide solution (RADA16-1) was applied to the cut and in its vicinity using a 27 gauge needle and 4 cc syringe. All bleeding stopped within 10 seconds. A series of pictures was obtained. […] After treating the site with 1% peptide solution (applied topically and in the cut), all bleeding stopped within 10 seconds. A clear area was observed between the two halves of the lobus sinister lateralis. This procedure was repeated several times with the same result.

muscle of the hind limb = assay: Hind limb muscle wounds (porteocaudalis and musculus tibialis cranialis); hemostasis; format: in vivo
Excerpt: However when an artery or vein was transected 2% or higher material was needed to bring about hemostasis. With the application of iced saline alone, control animals continued to bleed after 20 seconds.

superior sagittal sinus = assay: Complete transection of the superior sagittal sinus; hemostasis; format: in vivo; conditions: control animals still bleeding after 20 seconds
Excerpt: A higher concentration of peptide (e.g., approximately 3%-4%) was used in the latter experiment in order to achieve hemostasis. The three saline control cases continued to bleed after 20 seconds.

[2] = tested on: liver (lobus sinistras laterialis); assay: Liver, removal of 1/4 of the lobe, topical treatment of the margin; hemostasis; format: in vivo
Procedure: In other experiments ¼ of the lobe in the lower right quadrant of the lobus sinistras laterialis was removed, and the margin was treated with a topical application of 2% peptide (RADA16-I) to the site of injury. Bleeding stopped in less than 10 seconds.

skin wounds = assay: 4 mm punch biopsy healing test of skin and subcutaneous tissue; format: in vivo; conditions: single application
Procedure: The regions from which the biopsies were taken were either treated by a single application of self-assembling peptide (RADA16-I) solution or were left untreated. The wounds were left unbandaged. A series of pictures of a 4 mm punch biopsy healing test in which injured animals were treated with the self assembling peptide and compared to matching cases with no treatment illustrates the results. The wounds were photographed on day 0, day 1, day 4, and day 7. […] Treatment with the peptide appeared to speed healing by as much as 5 days in some cases.

[3] = tested on: branch of the superior sagittal sinus in the brains of rats and hamsters; assay: Transection of a branch of the superior sagittal sinus in the brain; hemostasis assessed visually from time-stamped video; format: in vivo
Procedure: Animals were anesthetized with an i.p. injection of ketamine (80 mg/kg) and xylazine (8 mg/kg). All surgical procedures were conducted under an operating microscope. Twenty-two animals, including 10 adult hamsters and 12 young adult female Spraque-Dawley rats (200-250 g), were treated with either iced saline or 20 μl of a 1% peptide solution at the site of the sinus branch transection. The material was prepared by dissolving RADA 16-1 (n-RADARADARADARADA-c; SEQ ID NO: 1) peptide in sterile water, and the peptide-containing solution was applied to the injured tissue with a 31 gauge needle attached to a 2 cc syringe.
The experiment was videotaped with a time stamp and was replayed one frame at a time to evaluate the length of time required for the peptide solution to form a gel, which effectively impeded bleeding. Hemostasis was assessed visually, and “complete hemostasis” was defined as the complete lack of movement of blood from the wound site.
Durations were measured from the start of application of peptide solution to the completion of hemostasis after transection of the veins leading to the sinus in the brains of adult rats. […] In the saline controls, cessation of bleeding was never achieved. The saline control experiment was terminated at the same time point in order to prevent the animals from bleeding to death.
A total of 22 rats and 64 hamsters have been subjected to experiments in which peptide-containing solutions effectively achieved hemostasis within 10 seconds following application to a site intracranial bleeding.

[4] = tested on: liver and a major branch of the portal vein; assay: Liver, transverse cut transecting a major branch of the portal vein (higher pressure); hemostasis; format: in vivo
Procedure: A series of pictures illustrate the experiment. […] The cut was treated with 4% peptide solution applied topically and in the cut. All bleeding stopped within 10 seconds. […] Thus, application of 4% peptide solution brings about complete hemostasis in a high pressure bleeding environment in less than 10 seconds. […] This procedure was repeated several times with the same result.

intestine (duodenum) = assay: Perforated intestine at the level of the duodenum; leakage of gastric fluid; format: in vivo, adult rat
Procedure: An additional volume of 2% peptide solution was injected into the duodenum at the level of the injury. […] In the control cut at the level of the duodenum, the wall of the intestine inverted and gastric fluids continued to leak from the site of injury when left untreated.

[5] = control cut treated 15 minutes after the injury

n-RADARADARADARADA-c [RADA16-I]
time until all bleeding had stopped (spinotrapezius muscles): ≤ 10 s | time to hemostasis (femoral artery; 20 μl of a 1% solution, all treated cases): less than 10 seconds | hemostasis in picture series (femoral artery; adult rat, after about five seconds): complete hemostasis was observed | hemostasis after replacement of cold saline with the peptide solution (femoral artery; control animals): almost immediate achievement of complete hemostasis | time complete hemostasis was maintained (femoral artery; duration of the test): ≥ 1 h | time until all bleeding stopped [1]: ≤ 10 s | hemostasis in limb wounds (muscle of the hind limb; between 1% to 100% peptide): hemostasis was achieved in all cases | material concentration needed to bring about hemostasis (muscle of the hind limb; when an artery or vein was transected): ≥ 2% | hemostasis after iced saline was removed and peptide solution applied (superior sagittal sinus): complete hemostasis almost immediately | hemostasis at the margin after the peptide was removed ([2]; 2% peptide, removed one minute later): complete hemostasis was achieved | time until bleeding stopped ([2]; topical 2% peptide): less than 10 seconds | wound healing versus untreated (skin wounds; contraction of the wound site as early as day 1): healed much faster | speeding of healing versus no treatment (skin wounds; some cases): ≤ 5 days | time to complete hemostasis after application of the peptide solution ([3]; 20 μl of a 1% peptide solution, rats and hamsters, all cases): ≤ 10 s | hemostasis in picture series ([3]; adult rat, five seconds after the peptide solution was applied): Complete hemostasis was achieved | average duration from start of application to completion of hemostasis ([3]; adult rats, transection of the veins leading to the sinus): 8.3 s | hemostasis ([4]; 1% solution): partial cessation of bleeding | hemostasis ([4]; 2% or 3% peptide solution): complete hemostasis was also achieved | time until all bleeding stopped ([4]; 4% peptide solution, topically and in the cut): ≤ 10 s | bleeding at later time ([4]; 4% peptide solution, ten minutes later, after physical stress): still no bleeding | hemostasis after excess peptide structure was wiped away ([4]; 30 seconds after treatment): hemostasis was maintained | leakage of gastric fluids after treatment of the site (intestine (duodenum); 2% peptide solution): all leakage of gastric fluids from the intestine stopped | leakage after additional volume injected into the duodenum (intestine (duodenum); 2% peptide solution, duration of the procedure): prevented all leakage from the intestine for one hour | intestinal wall inversion (intestine (duodenum); [5]): stopped the progression of the intestinal wall inversion | leakage when treated after the injury (intestine (duodenum); [5]): stopped all leakage from this injury site
